pEC50, pIC50: −log10 of the molar value. Where two headings read alike, the source gives them in different places.
Legend:
5-HT2A receptor = target: T1, 5-HT2A receptor (Homo sapiens, UniProt P28223); assay: 5-HT2A Gq dissociation BRET functional assay; type: cell-based; conditions: for EC50: 5-HT2A BRET EC50 (nM); for 5-HT2A BRET Eff %: normalized to % 5-HT stimulation
T1 construct: expressed in transfected cells; host or cells: HEK293T

5-HT2B receptor = target: T2, 5-HT2B receptor (Homo sapiens, UniProt P41595); assay: 5-HT2B Gq dissociation BRET functional assay; type: cell-based; conditions: Table 2; for EC50: 5-HT2B BRET EC50 (nM); for 5-HT2B BRET Eff %: normalized to % 5-HT stimulation
T2 construct: expressed in transfected cells; host or cells: HEK293T
T2 sequence (P41595 whole entry): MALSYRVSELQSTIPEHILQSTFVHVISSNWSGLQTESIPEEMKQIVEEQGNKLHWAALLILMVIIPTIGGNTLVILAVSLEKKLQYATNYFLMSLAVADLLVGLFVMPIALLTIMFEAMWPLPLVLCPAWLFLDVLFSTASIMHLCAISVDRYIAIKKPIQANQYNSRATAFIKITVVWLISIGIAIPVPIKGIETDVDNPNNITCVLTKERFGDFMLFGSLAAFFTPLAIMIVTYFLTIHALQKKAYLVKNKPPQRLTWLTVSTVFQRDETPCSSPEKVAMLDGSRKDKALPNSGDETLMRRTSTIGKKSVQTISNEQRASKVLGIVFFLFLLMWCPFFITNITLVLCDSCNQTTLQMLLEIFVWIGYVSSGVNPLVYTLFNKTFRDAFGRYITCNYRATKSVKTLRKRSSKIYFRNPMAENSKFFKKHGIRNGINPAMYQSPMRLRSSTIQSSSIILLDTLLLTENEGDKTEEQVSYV

5-HT2C receptor = target: T3, 5-HT2C receptor (Homo sapiens, UniProt P28335); assay: cell-based; type: cell-based; conditions: Table 2; for pEC50: at least three replicate trials, read-out: 5-HT2C BRET EC50; for 5-HT2C BRET Eff %: normalized to % 5-HT stimulation
T3 construct: expressed in transfected cells; host or cells: HEK293T
T3 sequence (P28335 33-458): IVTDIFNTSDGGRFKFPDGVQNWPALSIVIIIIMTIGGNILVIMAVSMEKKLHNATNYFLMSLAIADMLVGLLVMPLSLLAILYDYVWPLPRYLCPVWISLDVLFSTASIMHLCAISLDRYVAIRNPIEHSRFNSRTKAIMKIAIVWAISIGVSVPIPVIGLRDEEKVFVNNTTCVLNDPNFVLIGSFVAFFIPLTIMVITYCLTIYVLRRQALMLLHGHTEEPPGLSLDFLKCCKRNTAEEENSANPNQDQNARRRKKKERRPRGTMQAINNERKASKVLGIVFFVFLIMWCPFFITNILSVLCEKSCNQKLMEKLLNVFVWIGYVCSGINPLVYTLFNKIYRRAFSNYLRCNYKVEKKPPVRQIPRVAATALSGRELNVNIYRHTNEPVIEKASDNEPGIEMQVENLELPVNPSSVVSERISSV

[1] = target: T4, human ether-a-go-go-related gene (hERG) K+ channel (Homo sapiens, UniProt Q12809); assay: Eurofins hERG Qube APC Assay; type: cell-based; conditions: for IC50 (hERG)/EC50 (5-HT2A) ratio: Table 4; for hERG risk potential: based on IC50 (hERG)/EC50 (5-HT2A) ratio
T4 construct: Eurofins
T4 sequence (Q12809 whole entry): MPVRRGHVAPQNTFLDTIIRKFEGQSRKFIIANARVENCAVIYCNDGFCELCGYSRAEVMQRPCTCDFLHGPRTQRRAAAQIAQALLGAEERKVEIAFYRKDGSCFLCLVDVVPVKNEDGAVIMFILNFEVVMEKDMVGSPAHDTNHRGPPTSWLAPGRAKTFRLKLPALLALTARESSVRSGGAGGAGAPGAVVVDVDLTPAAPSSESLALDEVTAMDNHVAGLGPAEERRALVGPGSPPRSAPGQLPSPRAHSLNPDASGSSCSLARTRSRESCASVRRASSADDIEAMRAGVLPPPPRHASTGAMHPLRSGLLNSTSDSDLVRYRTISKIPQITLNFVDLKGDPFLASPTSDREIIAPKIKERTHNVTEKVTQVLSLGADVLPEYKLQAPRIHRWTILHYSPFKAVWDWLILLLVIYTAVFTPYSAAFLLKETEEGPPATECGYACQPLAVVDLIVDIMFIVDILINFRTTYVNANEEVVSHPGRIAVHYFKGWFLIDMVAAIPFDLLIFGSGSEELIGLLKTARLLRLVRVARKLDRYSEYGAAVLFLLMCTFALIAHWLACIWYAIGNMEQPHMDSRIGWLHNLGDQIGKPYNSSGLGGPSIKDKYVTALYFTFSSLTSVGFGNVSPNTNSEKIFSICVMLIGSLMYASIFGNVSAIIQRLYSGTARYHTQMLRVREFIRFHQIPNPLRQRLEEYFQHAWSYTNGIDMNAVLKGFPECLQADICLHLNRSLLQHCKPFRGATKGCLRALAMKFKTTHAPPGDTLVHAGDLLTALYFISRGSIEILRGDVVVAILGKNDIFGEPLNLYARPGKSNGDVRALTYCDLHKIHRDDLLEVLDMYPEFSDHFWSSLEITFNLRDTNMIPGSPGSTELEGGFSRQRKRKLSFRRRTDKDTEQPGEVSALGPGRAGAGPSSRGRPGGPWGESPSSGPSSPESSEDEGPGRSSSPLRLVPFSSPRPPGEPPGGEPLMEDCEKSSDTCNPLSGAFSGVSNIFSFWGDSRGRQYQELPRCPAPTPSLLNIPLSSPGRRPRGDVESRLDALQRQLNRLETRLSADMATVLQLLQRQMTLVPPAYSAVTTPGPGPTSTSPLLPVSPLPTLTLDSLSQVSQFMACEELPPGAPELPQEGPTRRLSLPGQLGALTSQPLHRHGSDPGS
Source text: As used herein and unless otherwise specified, the term “hERG risk” refers to the risk of a compound potentially inhibiting the human ether-a-go-go-related gene (hERG) K^+ channel, thereby leading to QT prolongation.
As a result of, many compounds disclosed in Table 1 and Table 2 were screened for the potential of “hERG risk” using pharmacological assays (e.g. Eurofins™ hERG Qube APC Assay). […].

mice = assay: head-twitch response (HTR) in mice; type: in vivo, male C57BL/6J mice; conditions: Mus musculus; mice
Description: As used herein and unless otherwise specified, the term “HTR” refers to head-twitch response, which is a measurement of 5-HT2A activation in vivo.
As used herein and unless otherwise specified, the term “mice” refers to male C57BL/6J mice (6-8 weeks old).
HTR was assessed using a head-mounted neodymium magnet and a magnetometer detection coil, as described in Halberstadt et al., Psychopharmacology (Berl.), 2013, 227(4): 727-739. Table 8 below summarizes the ED50 in head twitch in mice of various compounds disclosed herein as compared to psilocybin. FIG. 3 illustrates the HTR relative to dose for compound 109: […]

[2] = Table 2, at least three replicate trials
[3] = EC50 BRET 2A, Table 4, unit inferred
[4] = at least three replicate trials

T1 sequence (P28223 whole entry): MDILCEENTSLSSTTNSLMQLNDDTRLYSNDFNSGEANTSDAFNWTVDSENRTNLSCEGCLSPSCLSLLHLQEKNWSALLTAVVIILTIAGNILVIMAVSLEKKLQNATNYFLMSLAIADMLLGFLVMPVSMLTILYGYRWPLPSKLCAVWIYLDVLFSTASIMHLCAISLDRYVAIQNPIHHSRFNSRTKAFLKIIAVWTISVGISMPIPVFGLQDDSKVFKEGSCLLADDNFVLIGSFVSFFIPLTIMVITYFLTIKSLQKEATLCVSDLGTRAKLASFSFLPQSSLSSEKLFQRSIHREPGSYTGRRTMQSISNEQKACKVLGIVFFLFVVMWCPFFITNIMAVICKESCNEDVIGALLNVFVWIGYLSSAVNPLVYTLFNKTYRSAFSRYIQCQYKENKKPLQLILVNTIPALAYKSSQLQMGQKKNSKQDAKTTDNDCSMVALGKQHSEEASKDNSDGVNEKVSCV

SMILES | EC50 (5-HT2A receptor; [2]) | pEC50 (5-HT2A receptor; [3]) | 5-HT2A BRET Eff % (5-HT2A receptor; Table 2) | 5-HT2B BRET EC50 (nM) / Eff % (5-HT2B receptor) | pEC50 (5-HT2C receptor) | 5-HT2C BRET Eff % (5-HT2C receptor) | pIC50 [1] | IC50 (hERG)/EC50 (5-HT2A) ratio [1] | hERG risk potential [1] | EC50 (5-HT2B receptor; [4]) | 5-HT2B BRET Eff % (5-HT2B receptor) | ED50 (mice) | pEC50 (5-HT2A receptor; Table 2, at least three replicate trials, read-out: 5-HT2A BRET EC50) | pEC50 (5-HT2A receptor; Table 4, unit inferred, read-out: EC50 BRET 2A) | pEC50 (5-HT2B receptor; at least three replicate trials, read-out: 5-HT2B BRET EC50)
COc1cc(C#N)ccc1CCNCc1ccccc1Cl [Cpd #12] | 102 nM | 6.99 | 90% | Inactive | 5.92 | 130% | 5.76 | 17 | High (compounds exhibiting a IC50 (hERG) /EC50 (5-HT2A) ratio of less than or equal to 150 are generally indicative of high hERG risk potential) |  |  |  |  |  | 
COc1cc(C#N)ccc1CCNCc1ccccc1OC [Cpd #27] | 4.2 nM | 8.38 | 96% |  | 7.80 | 109% | 5.70 | 476 |  | 423 nM | 66% | 3 mg/kg |  |  | 
COc1cccc(CNCCc2ccc(C#N)cc2OC)c1 [Cpd #28] | 84 nM | 7.08 | 68% | Inactive | 6.06 | 91% | 5.80 | 19 | High (compounds exhibiting a IC50 (hERG) /EC50 (5-HT2A) ratio of less than or equal to 150 are generally indicative of high hERG risk potential) |  |  |  |  |  | 
COc1cc(C#N)ccc1CCNCc1cccc2c1CCO2 [Cpd #63] | 135 nM | 6.87 | 62% | Inactive | 5.68 | 78% | 5.80 | 12 | High (compounds exhibiting a IC50 (hERG) /EC50 (5-HT2A) ratio of less than or equal to 150 are generally indicative of high hERG risk potential) |  |  |  |  |  | 
COc1cc(C#N)ccc1CCNCc1cccc2occc12 [Cpd #64] |  |  | 82% |  | 6.45 | 104% | 6.05 | 30 | High (compounds exhibiting a IC50 (hERG) /EC50 (5-HT2A) ratio of less than or equal to 150 are generally indicative of high hERG risk potential) |  | 93% |  | 7.53 | 7.53 | 5.05
COc1cc(C#N)ccc1CCNCc1cccc2c1OCO2 [Cpd #65] | 19.7 nM | 7.71 | 84% | Inactive | 6.30 | 97% | 5.70 | 102 | High (compounds exhibiting a IC50 (hERG) /EC50 (5-HT2A) ratio of less than or equal to 150 are generally indicative of high hERG risk potential) |  |  |  |  |  | 
COc1cc(C#N)ccc1CCNCc1ccccc1SC [Cpd #108] | 2.4 nM | 8.62 | 99% |  | 7.80 | 103% | 5.75 | 742 |  | 2380 nM | 128% | 7.23 mg/kg |  |  | 
COc1cc(C#N)c(F)cc1CCNCc1ccccc1O [Cpd #117] | 3.8 nM | 8.42 | 97% |  | 7.39 | 115% | 6.05 | 237 |  | 4360 nM | 68% | 2.09 mg/kg |  |  | 
CSc1ccc(CCNCc2ccccc2O)c(O)c1 [Cpd #122] | 1.6 nM | 8.85 | 92% | inactive | 8.44 | 108% | 6.10 | 564 |  |  |  |  |  |  | 
